Patent US20110028447A1, “INDAZOLE DERIVATIVES” (Pfizer Inc., priority 2008, published 2011)
pKi: −log10 of the molar value.

Molecular target: human CB1 receptor (Homo sapiens, UniProt P21554)
Assay: Human CB1 receptor binding, [3H] CP-55,940 displacement on HEK cell membranes
Design: expressed in transfected cells; host or cells: HEK cells, doxycycline-induced; membrane preparation
Settings: CB1 Ki
Experimental: The Human CB1 receptor binding affinity and other biological activities of the compounds of this invention are determined by the following procedures. Membrane preparation: Human Embryonic Kidney (HEK) Cells expressing the human CB1 receptor under transcriptional regulation of a tetracycline inducible promoter were grown in Dulbecco's Modified Essential Medium with sodium pyruvate (Invitrogen, Carlsbad, Calif.) containing 10% tetracycline free fetal bovine serum (Clonetech, Mountain View, Calif.) 100 μg/ml hygromycin (Calbiochem, San Diego, Calif.), 5 μg/ml blasticidin (Invitrogen). CB1 receptor expression was induced by addition of 1 μg/ml doxycycline (Calbiochem) and incubation for an additional 24 hours. Cells were released from flasks using Cell Dissociation Buffer (Invitrogen). Cells were pelleted by centrifugation at 500×G for 5 minutes. Membranes were prepared by resuspending cells in ice cold TEE Buffer (25 mM Tris pH 7.4, 5 mM EDTA, 5 mM EGTA, Complete Protease Inhibitor (Roche, Basel, Switzerland)). Cells were lysed with 12 strokes of a dounce homogenizer. Unlysed cells were pelleted by centrifugation at 500×G for 5 minutes. Membranes were pelleted by centrifugation at 25,000×G for 30 minutes. Membranes were resuspended in TEE, dounced 12 strokes, and pelleted a second time at 25,000×G for 30 minutes. Membrane pellet was resuspended in 50 mM Tris pH 7.4, 100 mM NaCl, 3 mM MgCl2, 0.2 mM EGTA, Complete Protease Inhibitor (Roche). Protein concentration was determined using the Micro-BCA Protein Assay Kit (Pierce, Rockford, Ill.) using BSA as a standard. Membranes were quick frozen and stored at −80 degrees Celsius until use.
Binding experiments: 50 μl of test compound was incubated with 50 μl of [^3H] CP-55,940 (Perkin Elmer, Boston, Mass.) (final concentration=[…]) and 150 μl of membrane homogenate (1 μg/well) in polypropylene 96-well plates (Corning, Acton, Mass.). Final reaction conditions were 50 mM Tris pH 7.4, 100 mM NaCl, 3 mM MgCl2, 0.2 mM EGTA, 0.04% BSA. Nonspecific binding was determined by incubation with 50 μM WIN-55, 212-2 (Tocris, Ellisville, Mo.). After incubation at room temperature for 60 minutes reactions were harvested by vacuum filtration through Unifilter GF/B-96 filters (Perkin Elmer) that had been presoaked in assay buffer containing 0.5% BSA (Sigma, St. Louis, Mo.) using a FilterMate Plate Harvester (Perkin Elmer). Filters were rinsed 4 times with 50 mM Tris pH 7.4, 0.025% Tween-20 and dried at 50 degrees Celsius for at least 30 minutes. 40 μl of Microscint-20 (Perkin Elmer) was added per well, and plates were counted using a Top-Count Microplate Scintillation Counter (Perkin Elmer). Binding data were analyzed and EC50 and K, values calculated using Graph Pad Prism 4.0 Software.

Sequence of human CB1 receptor (P21554 whole entry): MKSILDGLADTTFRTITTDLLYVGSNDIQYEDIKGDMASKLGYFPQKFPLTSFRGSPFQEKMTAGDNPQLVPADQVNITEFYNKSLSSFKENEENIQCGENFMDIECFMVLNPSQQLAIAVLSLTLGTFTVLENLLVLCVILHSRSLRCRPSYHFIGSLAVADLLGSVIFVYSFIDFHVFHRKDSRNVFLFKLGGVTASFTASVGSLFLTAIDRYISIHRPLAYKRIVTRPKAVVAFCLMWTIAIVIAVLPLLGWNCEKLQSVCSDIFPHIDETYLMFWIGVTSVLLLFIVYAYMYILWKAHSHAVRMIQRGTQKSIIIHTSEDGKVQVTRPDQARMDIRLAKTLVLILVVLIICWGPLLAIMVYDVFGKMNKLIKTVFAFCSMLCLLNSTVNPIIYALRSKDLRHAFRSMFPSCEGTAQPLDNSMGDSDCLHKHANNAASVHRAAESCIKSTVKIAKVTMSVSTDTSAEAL

Q: With `NC(=O)[C@H](Cc1ccccc1)NC(=O)c1nn(Cc2ccc(F)cc2)c2ccccc12` [Example 4, N-α-{[1-(4-fluorobenzyl)-1H-indazol-3-yl]carbonyl}-L-phenylalaninamide] as the molecule, how does the pKi read?
A: Its pKi is 6.15.

Q: `Cc1cc(Cn2nc(C(=O)N[C@H](C(N)=O)C(C)(C)C)c3ccccc32)no1` [Example 5, N-[(1S)-1-(aminocarbonyl)-2,2-dimethylpropyl]-1-[(5-methylisoxazol-3-yl)methyl]-1H-indazole-3-carboxamide] was tested. Which pKi did it give?
A: The pKi was 6.02.

Q: With `CC(C)(C)[C@H](NC(=O)c1nn(Cc2ccc(F)cc2)c2ccccc12)C(=O)NCC(=O)O` [Example 9, N-{[1-(4-fluorobenzyl)-1H-indazol-3-yl]carbonyl}-3-methyl-L-valylglycine] as the molecule, how does the pKi read?
A: The pKi was 7.07.

Q: `CC(C)(C)[C@H](NC(=O)c1nn(Cc2ccc(C#N)cc2)c2ccccc12)C(=O)NCc1nn[nH]n1` [Example 217] was tested. Which pKi did it give?
A: Its pKi is less than 6.40.

Q: `CC(C)(C)[C@H](NC(=O)c1nn(Cc2ccc(C#N)cc2)c2c(F)cccc12)C(=O)NCCS(C)(=O)=O` [Example 221] was tested. Which pKi did it give?
A: Its pKi is 7.06.

Q: `CC(C)(C)[C@H](NC(=O)c1nn(Cc2ccc(C#N)cc2)c2c(F)cccc12)C(=O)NCCS(N)(=O)=O` [Example 222] was tested. Which pKi did it give?
A: The pKi was 7.67.

Q: How did the pKi turn out when `CC(C)(C)[C@H](NC(=O)c1nn(Cc2ccc(F)cc2)c2ccccc12)C(=O)N[C@H](CO)C(=O)O` [Example 235] was run?
A: The pKi was 6.65.

Q: `COC(=O)[C@@H](O)CNC(=O)[C@@H](NC(=O)c1nn(Cc2ccc(C#N)cc2)c2ccccc12)C(C)(C)C` [Example 237] was tested. Which pKi did it give?
A: The pKi was less than 6.40.

Q: With `CC(C)(C)[C@H](NC(=O)c1nn(Cc2ccc(F)cc2)c2ccccc12)C(=O)N[C@@H](CO)C(=O)O` [Example 240] as the molecule, how does the pKi read?
A: Its pKi is 6.82.

Q: How did the pKi turn out when `CC(C)(C)[C@H](NC(=O)c1nn(Cc2ccc(F)cc2)c2ccccc12)C(=O)N[C@@H]1CCCC[C@H]1O` [Example 248] was run?
A: The pKi was 6.97.

Q: How did the pKi turn out when `CC(C)(C)[C@H](NC(=O)c1nn(Cc2ccc(F)cc2)c2ccccc12)C(=O)N[C@H]1CCCC[C@@H]1O` [Example 252] was run?
A: The pKi was 6.69.

Q: `CC(C)(C)[C@H](NC(=O)c1nn(Cc2ccc(C(F)(F)F)cc2)c2ccccc12)C(=O)NC[C@H](O)CO` [Example 256] was tested. Which pKi did it give?
A: The pKi was 7.01.

Q: How did the pKi turn out when `CC(C)(C)[C@H](NC(=O)c1nn(Cc2ccc(C(F)(F)F)cc2)c2ccccc12)C(=O)NCCS(N)(=O)=O` [Example 257] was run?
A: The pKi was 6.65.

Q: How did the pKi turn out when `CC(C)(C)[C@H](NC(=O)c1nn(Cc2ccc(C(F)(F)F)cc2)c2ccccc12)C(=O)NCCS(C)(=O)=O` [Example 258] was run?
A: The pKi was less than 6.40.

Q: How did the pKi turn out when `CC(C)(C)[C@H](NC(=O)c1nn(Cc2ccc(C(F)(F)F)cc2)c2ccccc12)C(=O)NCC(N)=O` [Example 259] was run?
A: The pKi was 6.88.

Q: How did the pKi turn out when `CC(C)(C)[C@H](NC(=O)c1nn(Cc2ccc(C(F)(F)F)cc2)c2ccccc12)C(=O)NC[C@@H](O)CO` [Example 260] was run?
A: The pKi was less than 6.40.

Q: How did the pKi turn out when `CC(C)(C)[C@H](NC(=O)c1nn(Cc2ccc(C(F)(F)F)cc2)c2ccccc12)C(=O)NC(CO)CO` [Example 261] was run?
A: The pKi was 7.12.

Q: `CC(C)(C)[C@H](NC(=O)c1nn(Cc2ccc(C#N)cc2)c2ccccc12)C(=O)N1CCS(=O)(=O)CC1` [Example 268] was tested. Which pKi did it give?
A: The pKi was less than 6.40.

Q: `CC(C)(C)[C@H](NC(=O)c1nn(Cc2ccc(F)cc2)c2ccccc12)C(=O)N1CCS(=O)(=O)CC1` [Example 269] was tested. Which pKi did it give?
A: The pKi was 7.62.

Q: How did the pKi turn out when `CC(C)(C)[C@H](NC(=O)c1nn(Cc2cccc3ccccc23)c2ccccc12)C(N)=O` [Example 272] was run?
A: Its pKi is less than 6.40.

Q: How did the pKi turn out when `CC(C)(C)[C@H](NC(=O)c1nn(Cc2cccc3ccccc23)c2ccccc12)C(=O)NC1CC1` [Example 273] was run?
A: The pKi was less than 6.40.

Q: How did the pKi turn out when `CC(C)(C)[C@H](NC(=O)c1nn(Cc2cccc3ccccc23)c2ccccc12)C(=O)NCCO` [Example 274] was run?
A: Its pKi is less than 6.40.

Q: With `CC(C)(C)[C@H](NC(=O)c1nn(Cc2cccc3ccccc23)c2ccccc12)C(=O)NCC(N)=O` [Example 275] as the molecule, how does the pKi read?
A: Its pKi is less than 6.40.

Q: `CC(C)(C)[C@H](NC(=O)c1nn(Cc2cccc3ccccc23)c2ccccc12)C(=O)NC[C@H](O)CO` [Example 276] was tested. Which pKi did it give?
A: Its pKi is less than 6.40.

Q: With `CC(C)(C)[C@H](NC(=O)c1nn(Cc2ccc(F)cc2)c2ccccc12)C(=O)N[C@H]1CCC[C@@H]1O` [Example 279] as the molecule, how does the pKi read?
A: Its pKi is 7.27.

Q: `CC(C)(C)[C@H](NC(=O)c1nn(Cc2ccc(F)cc2)c2ccccc12)C(=O)N[C@H]1CCC[C@H]1O` [Example 280] was tested. Which pKi did it give?
A: Its pKi is 6.75.

Q: How did the pKi turn out when `CC(C)(C)[C@H](NC(=O)c1nn(Cc2ccc(C#N)cc2)c2ccccc12)C(=O)NC[C@@H](O)C(N)=O` [Example 283] was run?
A: The pKi was less than 6.40.

Q: `CC(C)(C)[C@H](NC(=O)c1nn(Cc2ccc(C#N)cc2)c2ccccc12)C(=O)N1C[C@@H](O)[C@@H](O)C1` [Example 285] was tested. Which pKi did it give?
A: Its pKi is 7.55.

Q: With `CC(C)(C)[C@H](NC(=O)c1nn(Cc2ccc(F)cc2)c2ccccc12)C(=O)NCC(=N)N` [Example 291] as the molecule, how does the pKi read?
A: The pKi was 8.92.

Q: `CC(C)(C)[C@H](NC(=O)c1nn(Cc2ccc(C#N)cc2)c2cc(F)ccc12)C(=O)NC(CO)CO` [Example 296] was tested. Which pKi did it give?
A: The pKi was 7.19.

Q: With `CC(C)(C)[C@H](NC(=O)c1nn(Cc2ccc(C#N)cc2)c2cc(F)ccc12)C(=O)NC[C@@H](O)CO` [Example 297] as the molecule, how does the pKi read?
A: The pKi was 6.91.

Same assay, conditions: read-out: CB1 Ki

Q: `CC(C)(C)C(NC(=O)c1nn(Cc2ccccc2C(N)=O)c2ccccc12)C(N)=O` (stereo not shown) [Example 34] was tested. Which pKi did it give?
A: The pKi was 6.81.

Q: `COc1cccc(C2(NC(=O)[C@@H](NC(=O)c3nn(Cc4ccc(C#N)cc4)c4c(F)cccc34)C(C)(C)C)CC2)c1` [Example 212] was tested. Which pKi did it give?
A: Its pKi is 7.28.

Q: With `CC(C)(C)[C@H](NC(=O)c1nn(Cc2ccc(C#N)cc2)c2c(F)cccc12)C(=O)N[C@H](CO)c1ccccc1` [Example 216] as the molecule, how does the pKi read?
A: The pKi was 6.65.

Q: How did the pKi turn out when `CC(C)(C)[C@H](NC(=O)c1nn(Cc2ccc(F)cc2)c2ccccc12)C(=O)N1C[C@@H]2C[C@H]1CN2C(N)=O` [Example 219] was run?
A: Its pKi is less than 6.40.

Q: How did the pKi turn out when `CC(C)(C)[C@H](NC(=O)c1nn(Cc2ccc(F)cc2)c2ccccc12)C(=O)N1C[C@@H]2C[C@H]1CN2C(=O)CCC(N)=O` [Example 227] was run?
A: The pKi was less than 6.40.

Q: How did the pKi turn out when `CC(C)(C)[C@H](NC(=O)c1nn(Cc2ccc(F)cc2)c2ccccc12)C(=O)N1CCC(O)(CNC(=O)C2CC2)CC1` [Example 229] was run?
A: Its pKi is 7.50.

Q: How did the pKi turn out when `CC(C)(C)[C@H](NC(=O)c1nn(Cc2ccc(F)cc2)c2ccccc12)C(=O)N1C[C@@H]2C[C@H]1CN2CC(O)CO` (stereo partly shown) [Example 232] was run?
A: The pKi was 7.27.

Q: How did the pKi turn out when `CC(C)(C)[C@H](NC(=O)c1nn(Cc2ccc(F)cc2)c2ccccc12)C(=O)N[C@@H](CC(N)=O)C(N)=O` [Example 239] was run?
A: The pKi was 7.33.

Q: `CC(C)(C)[C@H](NC(=O)c1nn(Cc2ccc(C(F)(F)F)cc2)c2ccccc12)C(=O)NCCNS(=O)(=O)c1ccc(C#N)cc1` [Example 267] was tested. Which pKi did it give?
A: The pKi was 7.11.

Q: How did the pKi turn out when `CC(C)(C)[C@H](NC(=O)c1nn(Cc2ccc(F)cc2)c2ccccc12)C(=O)N1CCCC(C(=O)NCCO)C1` (stereo partly shown) [Example 277] was run?
A: Its pKi is 7.50.

Q: With `CC(C)(C)[C@H](NC(=O)c1nn(Cc2ccc(F)cc2)c2ccccc12)C(=O)N1CCCC(C(=O)NC[C@H](O)CO)C1` (stereo partly shown) [Example 278] as the molecule, how does the pKi read?
A: Its pKi is 7.16.

Q: How did the pKi turn out when `CC(C)(C)[C@H](NC(=O)c1nn(Cc2ccc(C#N)cc2)c2c(F)cccc12)C(=O)N[C@H]1CCc2ccccc21` [Example 287] was run?
A: Its pKi is less than 6.40.

Q: How did the pKi turn out when `CC(C)(C)[C@H](NC(=O)c1nn(Cc2ccc(F)cc2)c2ccccc12)C(=O)N[C@H](CC(N)=O)C(N)=O` [Example 290] was run?
A: Its pKi is 7.04.

Q: How did the pKi turn out when `CC(C)(C)[C@H](NC(=O)c1nn(Cc2ccc(F)cc2)c2ccccc12)C(=O)N1CCC[C@H]1C(=O)NCCO` [Example 293] was run?
A: The pKi was less than 6.40.

Q: `CC(C)(C)[C@H](NC(=O)c1nn(Cc2ccc(F)cc2)c2ccccc12)C(=O)N1CCC[C@H]1C(=O)NC[C@H](O)CO` [Example 294] was tested. Which pKi did it give?
A: Its pKi is less than 6.40.
